Assay results: paper PMC8004798, “Identification of Bioactive Compounds from Marine Natural Products and Exploration of Structure-Activity Relationships (SAR)” (Antibiotics, 2021)
≈ marks a conversion by molar mass, not a printed value. Like-named read-outs stand apart in the source and are kept apart here.

What was measured:
[1] = tested on: M. tuberculosis H37Rv; assay: Resazurin bacterial inhibition assay (MIC), M. tuberculosis; type: cell-based; conditions: Mycobacterium tuberculosis, 168 h, commercial compounds, 7 days, read-out: Minimum Inhibitory Concentration M. tuberculosis H37Rv
[2] = tested on: methicillin-resistant Staphylococcus aureus (MRSA); assay: Resazurin bacterial inhibition assay (MIC), MRSA; type: cell-based; conditions: 18 h, read-out: Minimum Inhibitory Concentration MRSA
[3] = tested on: Human alveolar epithelial cells (A549); assay: Resazurin cytotoxicity assay, A549
From the text: (§1) To identify marine samples with activity against MRSA, 1434 compounds from the AIMS Bioresources Library (provided by the Queensland Compound Library, Brisbane, Australia, now called Compounds Australia) were screened in a resazurin cell viability assay.
(§2) Toxicity of AIMS Extract Library. Human alveolar epithelial cells (A549), Madin-Darby canine kidney epithelial cells (MDCK), human leukaemia cells (THP-1), human hepatocellular carcinoma cells (Hep-G2) and human embryonic kidney cells 293 (HEK293) were grown and differentiated in complete RPMI (Roswell Park Memorial Institute Medium) and DMEM (Dulbecco’s Modified Eagle’s medium) tissue culture media (RPMIc and DMEMc, from the Thermo Fisher Scientific, Waltham, MA, USA) by adding 10% FBS, 200 µM L-glutamine and 1 mM HEPES buffer solution. To determine toxicity of the AIMS extract library, 2 × 10^5 of each cell type were added to a 96-well plate and left for 48 h in a humidified 5% CO2 incubator at 37 °C to adhere. Extract samples at a final concentration of 0.5 mg mL^−1 were added to the wells, then the plates incubated for 4 more days in a humidified 5% CO2 incubator at 37 °C. Then, resazurin (10 μL of 0.05% w/v) was added and after 4 h, fluorescence measured as described previously. The cell viability was calculated as percentage fluorescence relative to untreated cells.

[4] = tested on: P. aeruginosa PAO1; assay: Resazurin bacterial inhibition assay (MIC), P. aeruginosa; type: cell-based; conditions: Pseudomonas aeruginosa, read-out: Minimum Inhibitory Concentration P. aeruginosa
[5] = tested on: human hepatocellular carcinoma cells (Hep-G2); assay: Resazurin cytotoxicity assay, HepG2
From the text: as §1, §2

[6] = tested on: human embryonic kidney cells 293 (HEK293); assay: Resazurin cytotoxicity assay, HEK 293
From the text: as §1, §2

[7] = tested on: E. coli EC958; assay: Resazurin bacterial inhibition assay (MIC), E. coli; type: cell-based; conditions: Escherichia coli, read-out: Minimum Inhibitory Concentration E. coli
[8] = tested on: human leukaemia cells (THP-1); assay: Resazurin cytotoxicity assay, THP-1
From the text: as §1
as §2, with “Extract samples at a final concentration of 0.5 mg mL^−1 were added to the wells, then the plates incubated for 4 more days in a humidified 5% CO2 incubator at 37 °C.” left out

[9] = Staphylococcus aureus, MRSA, commercial compounds, resazurin
[10] = commercial compounds, unit from Table 8 head
[11] = PAO1, commercial compounds, 18 h, resazurin
[12] = EC958, commercial compounds, 18 h, resazurin
[13] = commercial compounds, unit from Table 8 head, listed as 1,10 phenanthroline

SMILES: Cc1ccc2ccc3ccc(C)nc3c2n1 [Neocuproine hemihydrate]
- MIC [1]: 0.1 µM
- MIC [2, 9]: 0.09 µM
- Minimum Toxicity Concentration A549 [3, 10]: 6.2 µM
- MIC [4, 11]: 0.04 µM
- Minimum Toxicity Concentration HepG2 [5, 10]: 0.1 µM
- Minimum Toxicity Concentration HEK 293 [6, 10]: 0.1 µM
- MIC [7, 12]: 0.3 µM
- Minimum Toxicity Concentration THP-1 [8, 10]: 12 µM

SMILES: CCCCN(CCCC)CCCC [Tributylamine]
- MIC [1]: > 100 µM
- MIC ([2]; Staphylococcus aureus, MRSA): > 100 µM
- Minimum Toxicity Concentration A549 [3, 10]: >100 µM
- MIC ([4]; PAO1, 18 h): 50 µM (≈ 9.27 µg/mL)
- Minimum Toxicity Concentration HepG2 [5, 10]: >100 µM
- Minimum Toxicity Concentration HEK 293 [6, 10]: >100 µM
- MIC ([7]; EC958, 18 h): > 100 µM
- Minimum Toxicity Concentration THP-1 [8, 10]: >100 µM

SMILES: Cc1ccnc2c1ccc1c(C)ccnc12 [4,7-Dimethyl-1,10-Phenanthrolin]
- MIC [1]: 0.1 µM (≈ 0.0208 µg/mL)
- MIC [2, 9]: 0.3 µM (≈ 0.0625 µg/mL)
- Minimum Toxicity Concentration A549 ([3]; human, 4 days): 0.1 µM
- MIC [4, 11]: 0.1 µM (≈ 0.0208 µg/mL)
- Minimum Toxicity Concentration HepG2 ([5]; human, 4 days): 0.1 µM
- Minimum Toxicity Concentration HEK 293 ([6]; human, 4 days): 0.1 µM
- MIC [7, 12]: 0.3 µM (≈ 0.0625 µg/mL)
- Minimum Toxicity Concentration THP-1 ([8]; human, 4 days): 0.1 µM

SMILES: Cc1cc(-c2ccccc2)c2ccc3c(-c4ccccc4)cc(C)nc3c2n1 [2,9-Dimethyl-4,7-diphenyl-1,10-phenanthroline]
- MIC [1]: 50 µM (≈ 18 µg/mL)
- MIC [2, 9]: 25 µM (≈ 9.01 µg/mL)
- Minimum Toxicity Concentration A549 ([3]; human, 4 days): >100 µM
- MIC [4, 11]: 50 µM (≈ 18 µg/mL)
- Minimum Toxicity Concentration HepG2 ([5]; human, 4 days): 0.1 µM
- Minimum Toxicity Concentration HEK 293 ([6]; human, 4 days): 0.1 µM
- MIC [7, 12]: 0.78 µM (≈ 0.281 µg/mL)
- Minimum Toxicity Concentration THP-1 ([8]; human, 4 days): >100 µM

SMILES: O=[N+]([O-])c1cc2cccnc2c2ncccc12 [5-Nitro-1,10-phenanthroline]
- MIC [1]: 0.1 µM (≈ 0.0225 µg/mL)
- MIC [2, 9]: 0.09 µM (≈ 0.0203 µg/mL)
- Minimum Toxicity Concentration A549 ([3]; human, 4 days): 12 µM
- MIC [4, 11]: > 100 µM
- Minimum Toxicity Concentration HepG2 ([5]; human, 4 days): 0.1 µM
- Minimum Toxicity Concentration HEK 293 ([6]; human, 4 days): 0.1 µM
- MIC [7, 12]: 0.78 µM (≈ 0.176 µg/mL)
- Minimum Toxicity Concentration THP-1 ([8]; human, 4 days): 0.1 µM

SMILES: CCCCCCCCN(CCCCCCCC)CCCCCCCC [Trioctylamine]
- MIC [1]: 0.02 µM (≈ 0.00707 µg/mL)
- MIC [2, 9]: 12.5 µM (≈ 4.42 µg/mL)
- Minimum Toxicity Concentration A549 [3, 10]: 50 µM
- MIC [4, 11]: 25 µM (≈ 8.84 µg/mL)
- Minimum Toxicity Concentration HepG2 [5, 10]: >100 µM
- Minimum Toxicity Concentration HEK 293 [6, 10]: 6 µM
- MIC [7, 12]: 25 µM (≈ 8.84 µg/mL)
- Minimum Toxicity Concentration THP-1 [8, 10]: 3.1 µM

SMILES: CCCCCCCCNCCCCCCCC [Dioctylamine]
- MIC [1]: > 100 µM
- MIC [2, 9]: 6.2 µM (≈ 1.5 µg/mL)
- Minimum Toxicity Concentration A549 [3, 10]: >100 µM
- MIC [4, 11]: 3 µM (≈ 0.724 µg/mL)
- Minimum Toxicity Concentration HepG2 [5, 10]: >100 µM
- Minimum Toxicity Concentration HEK 293 [6, 10]: >100 µM
- MIC [7, 12]: 6.2 µM (≈ 1.5 µg/mL)
- Minimum Toxicity Concentration THP-1 [8, 10]: >100 µM

SMILES: Cc1c(C)c2cccnc2c2ncccc12 [5,6-Dimethyl-1,10-phenanthroline]
- MIC [1]: 0.1 µM (≈ 0.0208 µg/mL)
- MIC [2, 9]: 0.3 µM (≈ 0.0625 µg/mL)
- Minimum Toxicity Concentration A549 [3, 10]: 0.1 µM
- MIC [4, 11]: > 100 µM
- Minimum Toxicity Concentration HepG2 [5, 10]: 0.1 µM
- Minimum Toxicity Concentration HEK 293 [6, 10]: 0.1 µM
- MIC [7, 12]: 0.78 µM (≈ 0.162 µg/mL)
- Minimum Toxicity Concentration THP-1 [8, 10]: 0.1 µM

SMILES: c1ccc(-c2ccccn2)nc1 [2,2′-Bipyridine]
- MIC [1]: 0.1 µM (≈ 0.0156 µg/mL)
- MIC [2, 9]: > 100 µM
- Minimum Toxicity Concentration A549 [3, 10]: >100 µM
- MIC [4, 11]: > 100 µM
- Minimum Toxicity Concentration HepG2 [5, 10]: 3 µM
- Minimum Toxicity Concentration HEK 293 [6, 10]: 3 µM
- MIC [7, 12]: > 100 µM
- Minimum Toxicity Concentration THP-1 [8, 10]: 50 µM

SMILES: c1ccc(CN(Cc2ccccc2)Cc2ccccc2)cc1 [Tribenzylamine]
- MIC [1]: > 100 µM
- MIC [2, 9]: > 100 µM
- Minimum Toxicity Concentration A549 [3, 10]: >100 µM
- MIC [4, 11]: 6.5 µM (≈ 1.87 µg/mL)
- Minimum Toxicity Concentration HepG2 [5, 10]: >100 µM
- Minimum Toxicity Concentration HEK 293 [6, 10]: >100 µM
- MIC [7, 12]: > 100 µM
- Minimum Toxicity Concentration THP-1 [8, 10]: >100 µM

SMILES: c1cnc2c(c1)ccc1cccnc12 [1,10-phenanthroline]
- MIC [1]: 0.1 µM (≈ 0.018 µg/mL)
- MIC [2, 9]: > 100 µM
- Minimum Toxicity Concentration A549 [3, 10]: 3 µM
- Minimum Toxicity Concentration A549 [3, 13]: 50 µM
- MIC [4, 11]: 0.3 µM (≈ 0.0541 µg/mL)
- Minimum Toxicity Concentration HepG2 [5, 10]: 0.1 µM
- Minimum Toxicity Concentration HEK 293 [6, 10]: 50 µM
- Minimum Toxicity Concentration HEK 293 [6, 13]: 0.1 µM
- MIC [7, 12]: 50 µM (≈ 9.01 µg/mL)
- Minimum Toxicity Concentration THP-1 [8, 10]: 0.1 µM
- Minimum Toxicity Concentration THP-1 [8, 13]: 3 µM

SMILES: O=C1C(=O)c2cccnc2-c2ncccc21 [1,10-Phenanthroline-5,6-dione]
- MIC [1]: 0.1 µM (≈ 0.021 µg/mL)
- MIC [2, 9]: 0.04 µM (≈ 0.00841 µg/mL)
- MIC ([2]; commercial compounds, resazurin): 0.04 µM (≈ 0.00841 µg/mL)
- Minimum Toxicity Concentration A549 ([3]; human, 4 days): 0.1 µM
- MIC [4, 11]: 0.04 µM (≈ 0.00841 µg/mL)
- Minimum Toxicity Concentration HepG2 ([5]; human, 4 days): 0.1 µM
- Minimum Toxicity Concentration HEK 293 ([6]; human, 4 days): 0.1 µM
- MIC [7, 12]: 0.04 µM (≈ 0.00841 µg/mL)
- Minimum Toxicity Concentration THP-1 ([8]; human, 4 days): 0.1 µM

SMILES: CCN(CC)CC [Triethylamine]
- MIC [1]: > 100 µM
- MIC [2, 9]: > 100 µM
- Minimum Toxicity Concentration A549 ([3]; human, 4 days): >100 µM
- MIC [4, 11]: > 100 µM
- Minimum Toxicity Concentration HepG2 ([5]; human, 4 days): >100 µM
- Minimum Toxicity Concentration HEK 293 ([6]; human, 4 days): >100 µM
- MIC [7, 12]: > 100 µM
- Minimum Toxicity Concentration THP-1 ([8]; human, 4 days): >100 µM

SMILES: c1cnc2ccc3ncccc3c2c1 [4,7-phenanthroline]
- MIC [1]: 2.5 µM (≈ 0.451 µg/mL)
- MIC [2, 9]: 1.5 µM (≈ 0.27 µg/mL)
- Minimum Toxicity Concentration A549 [3, 10]: >100 µM
- MIC [4, 11]: 2.5 µM (≈ 0.451 µg/mL)
- Minimum Toxicity Concentration HepG2 [5, 10]: >100 µM
- Minimum Toxicity Concentration HEK 293 [6, 10]: >100 µM
- MIC [7, 12]: 1.5 µM (≈ 0.27 µg/mL)
- Minimum Toxicity Concentration THP-1 [8, 10]: >100 µM

SMILES: NCc1ccccc1 [Benzylamine]
- MIC [1]: > 100 µM
- MIC [2, 9]: > 100 µM
- Minimum Toxicity Concentration A549 ([3]; human, 4 days): >100 µM
- MIC [4, 11]: > 100 µM
- Minimum Toxicity Concentration HepG2 ([5]; human, 4 days): >100 µM
- Minimum Toxicity Concentration HEK 293 ([6]; human, 4 days): >100 µM
- MIC [7, 12]: > 100 µM
- Minimum Toxicity Concentration THP-1 ([8]; human, 4 days): >100 µM

SMILES: c1ccc2cnccc2c1 [Isoquinoline]
- MIC [1]: 0.1 µM (≈ 0.0129 µg/mL)
- MIC [2, 9]: > 100 µM
- MIC [4, 11]: > 100 µM
- Minimum Toxicity Concentration HepG2 ([5]; human, 4 days): 3 µM
- MIC [7, 12]: > 100 µM

SMILES: c1ccc2ncccc2c1 [Quinoline]
- MIC [1]: 0.1 µM (≈ 0.0129 µg/mL)
- MIC [2, 9]: > 100 µM
- Minimum Toxicity Concentration A549 ([3]; human, 4 days): 50 µM
- MIC [4, 11]: > 100 µM
- Minimum Toxicity Concentration HepG2 ([5]; human, 4 days): 3 µM
- MIC [7, 12]: > 100 µM
